According to paper PMC9555310, “Novel inhibitors and activity-based probes targeting serine proteases” (Frontiers in Chemistry, 2022):

Target: T1, trypsin (Sus scrofa, UniProt P00761)
T1 construct: purchased Sigma-Aldrich; host or cells: porcine pancreas
Test: Irreversible inhibition kinetics of trypsin (fluorogenic substrate progress curves)
Type: biochemical, porcine
Procedure: A range of inhibitor concentrations were prepared from a 10 mM stock solution of the test compounds (NAP533, NAP559, NAP800, NAP830, NAP849, and NAP962) in N, N-dimethylformamide (DMF). Recombinant protease activities were assayed using the cognate fluorogenic substrates as follows: trypsin (Z-Gly-Gly-Arg-NHMec), thrombin (Boc-Val-Pro-Arg-NHMec), plasmin (Boc-Val-Leu-Lys-NHMec), human neutrophil elastase (MeO-Succinyl-Ala-Ala-Pro-Val-NHMec), and chymotrypsin (Succinyl-Ala-Ala-Pro-Phe-NHMec). Each substrate was used at a final concentration of 50 μM, in the appropriate buffer for each protease. All inhibition assays were performed in microtiter plates maintained at 37°C in a final volume of 100 μL. The reaction was initiated by the addition of each protease (approx. 0.01 μg/well) and the rate of substrate hydrolysis was recorded continuously at 37°C, over a 60 min period, by measuring the rate of increase in fluorescence (at λex 360 nm, λem 480 nm) using a FLUOstar Optima microplate reader (BMG Labtech).
The resultant inhibition progress curves obtained for each inhibitor were analyzed by the kinetic models developed by [Tian and Tsou (1982)] and [Walker and Elmore (1984)], for irreversible inhibitors, with curve fitting being achieved using GraFit (Erithacus Software), as described previously ([Ferguson et al., 2016]).
FIGURE 4 Progress curves for (A), chymotrypsin-catalysed hydrolysis of Succinyl-Ala-Ala-Pro-Phe-NHMec, in the presence of varying concentrations of NAP849. (B), NE-catalysed hydrolysis of MeO-succinyl-Ala-Ala-Pro-Val-NHMec, in the presence of varying concentrations of NAP800. (C) Trypsin-catalysed of Z-Gly-Gly-Arg-NHMec, in the presence of NAP830. (D) Plasmin-catalysed hydrolysis of Boc-Val-Leu-Lys-NHMec, in the presence of varying concentrations of NAP962. Assays were carried out in PBS, pH 7.4, at 37°C, in the presence of a range of inhibitor concentrations (0.25–50 μM) and a fixed concentration (50 μM) of the appropriate substrate for each protease. […]
Protease inactivation by each of the compounds under study was evaluated using a fluorogenic enzyme assays. […]

T1 sequence (P00761 9-231): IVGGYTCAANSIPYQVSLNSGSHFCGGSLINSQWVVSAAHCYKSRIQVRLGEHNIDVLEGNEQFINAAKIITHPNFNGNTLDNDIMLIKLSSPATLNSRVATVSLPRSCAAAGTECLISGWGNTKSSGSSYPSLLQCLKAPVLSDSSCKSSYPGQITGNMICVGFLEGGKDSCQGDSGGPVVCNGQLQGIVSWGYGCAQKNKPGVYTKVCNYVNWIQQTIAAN

NCCCCN(CC(=O)NCC(=O)NCC(=O)NCCCOCCOCCOCCCNC(=O)CCCCC1SCC2NC(=O)NC21)C(=O)ON1C(=O)CCC1=O (stereo not drawn) [NAP830, Succinimidoyl-CO-NLys-Gly-Gly-PEG-Biotin]
k 3 (first-order rate constant, PBS pH 7.4, 37°C, mean ± SD (n=2)): 0.6 (+ 0.2) min^−1 | effectiveness as irreversible inhibitor relative to the analogous lysine diphenyl phosphonate QUBTL2 (fold greater than QUBTL2): two-fold | k 3 / K i (second-order rate constant of inactivation, PBS pH 7.4, 37°C, mean ± SD (n=2)): 45700 M⁻¹ s⁻¹
